Drawing on PubChem BioAssay AID1845201 (Molecular Pharmacology Branch, DTP, NCI, 2023), this text covers IC50 and viability, T/C for four compounds.

The structures appear in SMILES notation. Several values for one entry are separate records, joined by “and”; a condition that tells them apart may be missing. Equal values may be shown once.

The experiment relates to COR L88 complex tumor spheroid viability. The experiment in a line: Anticancer human tumor COR L88 cell line growth inhibition.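 As to all read-outs here: compound exposure lasted 7 days before viability readout.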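 As to viability, T/C: percent of DMSO vehicle-treated spheroids = 100%.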 As to conditions: for viability, T/C: stronger effect = lower value. In outline:
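Complex spheroids of malignant cells with endothelial cells and mesenchymal stem cells; agents alone or combined, from near clinical Cmax (or 10 microM if unknown) down in half-log steps, 0.25% DMSO final.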

[1] abbreviates: curve of first compound, second compound 0.003 µM.

The term IC50 denotes the concentration that inhibits the measured activity by half. The viability, T/C is the result in the treated group divided by that in the control group, in per cent. As for `Cc1sc2c(c1C)C(c1ccc(Cl)cc1)=NC(CC(=O)Nc1ccc(O)cc1)c1nnc(C)n1-2` (stereo not drawn) + COc1cc2c(cc1O)CCNC21CSC2c3c(OC(C)=O)c(C)c4c(c3C(COC1=O)N1C(O)C3Cc5cc(C)c(OC)c(O)c5C(C21)N3C)OCO4, the IC50 is, setting by setting: (curve of first compound, second compound 30 pM) 455 nM; (curve of first compound, second compound 94.9 pM) 432 nM; (curve of first compound, second compound 0.0003 µM) 464 nM; (curve of first compound, second compound 0.000949 µM) 104 nM; under setting [1], < 9.49 nM. For the same compound, the viability, T/C reads like this: (second compound 30 pM, first compound 0.00949 µM) 92.5%; (second compound 30 pM, first compound 0.03 µM) 90.9%; (second compound 30 pM, first compound 0.0949 µM) 101%; (second compound 30 pM, first compound 0.3 µM) 65.3%; (second compound 30 pM, first compound 0.949 µM) 23.6%; (second compound 30 pM, first compound 3 µM) 14.8%. Further, the viability, T/C by setting is: (second compound 94.9 pM, first compound 0.00949 µM) 92.6%; (second compound 94.9 pM, first compound 0.03 µM) 96.5%; (second compound 94.9 pM, first compound 0.0949 µM) 94.2%; (second compound 94.9 pM, first compound 0.3 µM) 55.3%; (second compound 94.9 pM, first compound 0.949 µM) 33.5%; (second compound 94.9 pM, first compound 3 µM) 14.1%. The viability, T/C was 76.1% (second compound 0.0003 µM, first compound 0.00949 µM); 118% (second compound 0.0003 µM, first compound 0.03 µM); 122% (second compound 0.0003 µM, first compound 0.0949 µM); 72.6% (second compound 0.0003 µM, first compound 0.3 µM); 15.1% (second compound 0.0003 µM, first compound 0.949 µM); 3.51% (second compound 0.0003 µM, first compound 3 µM). Moreover, the viability, T/C was 87.4% (second compound 0.000949 µM, first compound 0.00949 µM); 84.6% (second compound 0.000949 µM, first compound 0.03 µM); 54% (second compound 0.000949 µM, first compound 0.0949 µM); 5.62% (second compound 0.000949 µM, first compound 0.3 µM); 1.33% (second compound 0.000949 µM, first compound 0.949 µM); 0.42% (second compound 0.000949 µM, first compound 3 µM). Also, the viability, T/C (second compound 0.003 µM, first compound 0.00949 µM) is 0.68%; the viability, T/C (second compound 0.003 µM, first compound 0.03 µM) was 0.7%; the viability, T/C (second compound 0.003 µM, first compound 0.0949 µM) was 0.6%; the viability, T/C (second compound 0.003 µM, first compound 0.3 µM) is 0.57%; the viability, T/C (second compound 0.003 µM, first compound 0.949 µM) is 0.69%; the viability, T/C (second compound 0.003 µM, first compound 3 µM) was 1.49%.

Regarding `CC(C)n1c(=O)n(C)c2cnc3cc(F)c(-c4ccc(OCCCN5CCCCC5)nc4)cc3c21` + CC[C@@]1(O)C(=O)OCc2c1cc1n(c2=O)Cc2cc3c(CN(C)C)c(O)ccc3nc2-1, the IC50 is 5160 nM under setting [1]; 157 nM (curve of first compound, second compound 0.00949 µM); < 31.6 nM (curve of first compound, second compound 0.03 µM); < 31.6 nM (curve of first compound, second compound 0.0949 µM); < 31.6 nM (curve of first compound, second compound 0.3 µM). The viability, T/C runs as follows: (second compound 0.003 µM, first compound 0.0316 µM) 85%; (second compound 0.003 µM, first compound 0.1 µM) 94.2%; (second compound 0.003 µM, first compound 0.316 µM) 76.9%; (second compound 0.003 µM, first compound 1 µM) 80.6%; (second compound 0.003 µM, first compound 3.16 µM) 68.2%; (second compound 0.003 µM, first compound 10 µM) 26.9%. Moreover, the viability, T/C is, setting by setting: (second compound 0.00949 µM, first compound 0.0316 µM) 51.9%; (second compound 0.00949 µM, first compound 0.1 µM) 52.9%; (second compound 0.00949 µM, first compound 0.316 µM) 48.2%; (second compound 0.00949 µM, first compound 1 µM) 40.6%; (second compound 0.00949 µM, first compound 3.16 µM) 33%; (second compound 0.00949 µM, first compound 10 µM) 14.1%. Moreover, the viability, T/C is 46.5% (second compound 0.03 µM, first compound 0.0316 µM); 42.1% (second compound 0.03 µM, first compound 0.1 µM); 37.3% (second compound 0.03 µM, first compound 0.316 µM); 29.7% (second compound 0.03 µM, first compound 1 µM); 30.6% (second compound 0.03 µM, first compound 3.16 µM); 14.2% (second compound 0.03 µM, first compound 10 µM). The viability, T/C is, setting by setting: (second compound 0.0949 µM, first compound 0.0316 µM) 38.6%; (second compound 0.0949 µM, first compound 0.1 µM) 36.4%; (second compound 0.0949 µM, first compound 0.316 µM) 30.2%; (second compound 0.0949 µM, first compound 1 µM) 28.6%; (second compound 0.0949 µM, first compound 3.16 µM) 27.2%; (second compound 0.0949 µM, first compound 10 µM) 15.3%. The viability, T/C by setting is: (second compound 0.3 µM, first compound 0.0316 µM) 44.3%; (second compound 0.3 µM, first compound 0.1 µM) 42.7%; (second compound 0.3 µM, first compound 0.316 µM) 39%; (second compound 0.3 µM, first compound 1 µM) 34.5%; (second compound 0.3 µM, first compound 3.16 µM) 27.7%; (second compound 0.3 µM, first compound 10 µM) 14.7%.

Consider `COc1cc2c(cc1O)CCNC21CSC2c3c(OC(C)=O)c(C)c4c(c3C(COC1=O)N1C(O)C3Cc5cc(C)c(OC)c(O)c5C(C21)N3C)OCO4` (stereo not drawn), for which the viability, T/C is 103% [middle of 10 runs] (compound 30 pM); 110% [middle of 10 runs] (compound 94.9 pM); 71.5% [middle of 10 runs] (compound 0.0003 µM); 59.8% [middle of 10 runs] (compound 0.000949 µM); 0.67% [middle of 10 runs] (compound 0.003 µM). For the same compound, where the note is “compound alone, run of 10/25/2019”, the IC50 is 1.02 nM [middle of 10 runs].

In the case of `Cc1cc(C)c(CNC(=O)c2cc(-c3ccc(CN4CCOCC4)cc3)cc3c2cnn3C2CCCC2)c(=O)[nH]1`, the viability, T/C is 92.8% and 89.3% and 93.7% (compound 0.0316 µM); 102% and 98.3% and 89.8% (compound 0.1 µM); 101% and 100% and 96.4% (compound 0.316 µM); 84.1% and 93.3% and 95.8% (compound 1 µM); 85.2% and 88.7% and 77.4% (compound 3.16 µM); 44.7% and 56.8% and 52.6% (compound 10 µM). Also, the IC50 (curve of compound) was 8670 nM and > 10000 nM.
